Test results from patent publication US12661349B1, “Pharmaceutically acceptable salt of sphingosine-1-phosphate receptor agonist, and crystalline form thereof” (LG CHEM, LTD., priority 2021, dated 2026).

Experiment: Water solubility by quantitative analysis (HPLC)
Assay type: physicochemical
Settings: for Water solubility (μg/mL, HPLC) 24 hr: comparison of salt forms of Compound 1; for water solubility: quantitative analysis by HPLC, crystalline form of the salt
Procedure: (4) Quantitative Analysis (HPLC)
Approximately 26.7 mg of the sample was precisely weighed and placed in a 500 mL volumetric flask. 450 mL of a diluted solution (methanol:purified water=1:1) was added thereto, completely dissolved, and then filled with the diluted solution up to the marked line. HPLC equipment and analysis methods are represented in Table 1 below.
Quantitative analysis was carried out in the same manner as in Example 2.
Various types of salts were prepared. After analyzing characteristics in the same manner as above, the comparisons with potassium salt and methanesulfonic acid salt (mesylate) are represented in Table 4 below.

Row | SMILES | solubility at 24 h (thermodynamic from solid, HPLC quantitation, 24 hr, comparison of salt forms of Compound 1, read-out: Water solubility (μg/mL, HPLC) 24 hr) [µg/mL] | Water solubility (μg/mL, HPLC) 24 hr (HPLC quantitation, 24 hr) [µg/mL] | water solubility [µg/mL]
1 | CC(C)n1nc(Cl)c2cc(COc3ccc4c(c3)CCC(CN3CCC(C(=O)O)CC3)=C4Cl)ccc21 [Free form, 1-[1-Chloro-6-(3-chloro-1-isopropyl-1H-indazol-5-ylmethoxy)-3,4-dihydro-naphthalen-2-ylmethyl]-piperidine-4-carboxylic acid] | 3.7 |  | 
2 | CC(C)n1nc(Cl)c2cc(COc3ccc4c(c3)CCC(CN3CCC(C(=O)O)CC3)=C4Cl)ccc21.CS(=O)(=O)O [Mesylate (1 eq.), methanesulfonic acid salt (mesylate) of 1-[1-chloro-6-(3-chloro-1-isopropyl-1H-indazol-5-ylmethoxy)-3,4-dihydro-naphthalen-2-ylmethyl]-piperidine-4-carboxylic acid] |  | 536.8 | 536.8
3 | CC(C)n1nc(Cl)c2cc(COc3ccc4c(c3)CCC(CN3CCC(C(=O)[O-])CC3)=C4Cl)ccc21.[K+] [K salt (1 eq.), potassium salt of 1-[1-chloro-6-(3-chloro-1-isopropyl-1H-indazol-5-ylmethoxy)-3,4-dihydro-naphthalen-2-ylmethyl]-piperidine-4-carboxylic acid] |  | 33238.5 | 33238.5
